Measurements from patent publication US11648254B2 (Kumquat Biosciences Inc., priority 2021, dated 2023).
Read-outs that look alike come from different tables or passages of the source.

What was measured:
[1] = test system: NCI-H1975 cells (EGFR T790M L858R); assay: EGFR-SOS cellular inhibition assay (CellTiter-Glo, 3D); format: cell-based; details: Homo sapiens
[2] = target: SOS1 (Homo sapiens (Human), UniProt Q07889); assay: Ras-SOS interaction assay (HTRF); format: biochemical
[3] = test system: MIA PaCa-2 cells (K-Ras G12C); assay: Ras-SOS cellular growth inhibition assay (CellTiter-Glo, 3D); format: cell-based; details: Homo sapiens
In short: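 Growth read by CellTiter-Glo luminescence about 5 days after dosing with 3-fold dilutions (9 points), added one day post-seeding. Cells: MIA PaCa-2, 3D culture on ultra-low-attachment surface, medium DMEM/Ham's F12 plus 10% FCS and 2.5% horse serum; IC50 by four-parameter fit.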

[4] = 120 h, NCI-H1975, 3D proliferation, about 5 days, read-out: Bio-Cell-Prolif-3D (H1975 IC50)
[5] = K-RasG13D utilized, read-out: IC50 inhibition of SOS
[6] = K-RasG13D, read-out: IC50 value against SOS1
[7] = MIA PaCa-2, 120 h, MIA PaCa-2, 3D proliferation, about 5 days, read-out: Bio-Cell-Prolif-3D (MiaPaca2 IC50)
[8] = NCI-H1975, EGFR T790M L858R, read-out: IC50 in inhibiting growth of NCI-H1975 cell line
[9] = MIA PaCa-2, MIA PaCa-2, read-out: IC50 in inhibiting MIA PaCa-2 cell growth

SOS1, sequence (Q07889 564-1049): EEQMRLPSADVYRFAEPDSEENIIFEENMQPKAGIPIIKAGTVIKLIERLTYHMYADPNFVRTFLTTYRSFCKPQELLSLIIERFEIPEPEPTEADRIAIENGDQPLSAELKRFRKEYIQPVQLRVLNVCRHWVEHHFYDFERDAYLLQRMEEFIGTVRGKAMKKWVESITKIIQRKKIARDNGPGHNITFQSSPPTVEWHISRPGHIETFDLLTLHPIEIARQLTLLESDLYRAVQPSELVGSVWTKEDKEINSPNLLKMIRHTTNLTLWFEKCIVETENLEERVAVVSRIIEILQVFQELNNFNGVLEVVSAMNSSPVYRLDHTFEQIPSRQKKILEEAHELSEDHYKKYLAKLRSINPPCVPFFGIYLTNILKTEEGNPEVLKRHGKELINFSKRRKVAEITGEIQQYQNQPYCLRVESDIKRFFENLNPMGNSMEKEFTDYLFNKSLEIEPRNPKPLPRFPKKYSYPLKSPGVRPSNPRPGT

Row | Compound | IC50 [1, 4] | IC50 [2, 5] | IC50 [2, 6] | IC50 [3, 7] | IC50 [1, 8] | IC50 [3, 9]
1 | Cc1nc(N[C@H](C)c2cccc(C(F)(F)C(C)(C)O)c2F)c2cc(C3(C#N)CC3)c(OC3COC3)nc2n1 [Compound 245, (R)-1-(4-((1-(3-(1,1-difluoro-2-hydroxy-2-methylpropyl)-2-fluorophenyl)ethyl)amino)-2-methyl-7-(oxetan-3-yloxy)pyrido[2,3-d]pyrimidin-6-yl)cyclopropane-1-carbonitrile] | 1000 to 10000 nM | < 100 nM | < 50 nM | 1000 to 10000 nM |  | 
2 | Cc1nc(N[C@H](C)c2cccc(C(F)(F)F)c2F)c2cc(C3CCS(=O)(=O)CC3)c(OC3COC3)nc2n1 [Compound 247, (R)-4-(4-((1-(2-fluoro-3-(trifluoromethyl)phenyl)ethyl)amino)-2-methyl-7-(oxetan-3-yloxy)pyrido[2,3-d]pyrimidin-6-yl)tetrahydro-2H-thiopyran 1,1-dioxide] | ≤ 1000 nM | < 100 nM | < 50 nM | ≤ 1000 nM | < 500 nM | < 500 nM
3 | Cc1nc(N[C@H](C)c2cccc(C(F)(F)F)c2F)c2cc(C3CCS(=O)(=O)CC3)c(OC3CN(C)C3)nc2n1 [Compound 248, (R)-4-(4-((1-(2-fluoro-3-(trifluoromethyl)phenyl)ethyl)amino)-2-methyl-7-((1-methylazetidin-3-yl)oxy)pyrido[2,3-d]pyrimidin-6-yl)tetrahydro-2H-thiopyran 1,1-dioxide] | ≤ 1000 nM | < 100 nM | < 50 nM | ≤ 1000 nM | < 500 nM | < 500 nM
4 | Cc1nc(N[C@H](C)c2cccc(C(F)(F)F)c2C)c2cc(C3CCS(=O)(=O)CC3)c(OC3COC3)nc2n1 [Compound 249, (R)-4-(2-methyl-4-((1-(2-methyl-3-(trifluoromethyl)phenyl)ethyl)amino)-7-(oxetan-3-yloxy)pyrido[2,3-d]pyrimidin-6-yl)tetrahydro-2H-thiopyran 1,1-dioxide] | ≤ 1000 nM | < 100 nM | < 50 nM | 1000 to 10000 nM | < 500 nM | 
5 | Cc1nc(N[C@H](C)c2cccc(C(F)F)c2F)c2cc(C3CCS(=N)(=O)CC3)c(OCCN(C)C)nc2n1 (stereo partly drawn) [Compound 250, (R)-4-(4-((1-(3-(difluoromethyl)-2-fluorophenyl)ethyl)amino)-7-(2-(dimethylamino)ethoxy)-2-methylpyrido[2,3-d]pyrimidin-6-yl)-1-iminohexahydro-116-thiopyran 1-oxide] | 1000 to 10000 nM | < 100 nM | < 50 nM | > 10000 nM |  | 
6 | C[C@@H](Nc1ncnc2nc(OCCN(C)C)c(C3CCS(=O)(=O)CC3)cc12)c1cccc(C(F)F)c1F [Compound 251, (R)-4-(4-((1-(3-(difluoromethyl)-2-fluorophenyl)ethyl)amino)-7-(2-(dimethylamino)ethoxy)pyrido[2,3-d]pyrimidin-6-yl)tetrahydro-2H-thiopyran 1,1-dioxide] | ≤ 1000 nM | < 100 nM | < 50 nM | 1000 to 10000 nM | < 500 nM | 
7 | Cc1nc(N[C@H](C)c2cccc(C(F)F)c2F)c2cc(C3CCN(C)CC3)c(OC3CN(C)C3)nc2n1 [Compound 252, (R)-N-(1-(3-(difluoromethyl)-2-fluorophenyl)ethyl)-2-methyl-7-((1-methylazetidin-3-yl)oxy)-6-(1-methylpiperidin-4-yl)pyrido[2,3-d]pyrimidin-4-amine] | ≤ 1000 nM | < 100 nM | < 50 nM | 1000 to 10000 nM |  | 
8 | Cc1nc(N[C@H](C)c2cccc(C(F)F)c2F)c2cc(C3CCN(C)CC3)c(OC3CNC3)nc2n1 [Compound 253, (R)-7-(azetidin-3-yloxy)-N-(1-(3-(difluoromethyl)-2-fluorophenyl)ethyl)-2-methyl-6-(1-methylpiperidin-4-yl)pyrido[2,3-d] pyrimidin-4-amine] | 1000 to 10000 nM | < 100 nM | < 50 nM | 1000 to 10000 nM |  | 
9 | CCN1CCN(c2cc3c(N[C@H](C)c4cccc(C(F)F)c4F)nc(C)nc3nc2OC2CN(C)C2)CC1 [Compound 254, (R)-N-(1-(3-(difluoromethyl)-2-fluorophenyl)ethyl)-6-(4-ethylpiperazin-1-yl)-2-methyl-7-((1-methylazetidin-3-yl)oxy)pyrido[2,3-d]pyrimidin-4-amine] | 1000 to 10000 nM | < 100 nM | < 50 nM | 1000 to 10000 nM |  | 
10 | CCN1CCN(c2cc3c(N[C@H](C)c4cccc(C(F)F)c4F)nc(C)nc3nc2OCCN(C)C)CC1 [Compound 255, (R)-N-(1-(3-(difluoromethyl)-2-fluorophenyl)ethyl)-7-(2-(dimethylamino)ethoxy)-6-(4-ethylpiperazin-1-yl)-2-methylpyrido[2,3-d] pyrimidin-4-amine] | ≤ 1000 nM | < 100 nM | < 50 nM | 1000 to 10000 nM |  | 
11 | Cc1nc(N[C@H](C)c2cccc(C(F)(F)F)c2F)c2cc(N3CCS(=O)(=O)CC3)c(Cl)nc2n1 [Compound 257, (R)-4-(7-chloro-4-((1-(2-fluoro-3-(trtfluoromethyl)phenyl)ethyl)amino)-2-methylpyrido[2,3-d]pyrimidin-6-yl)thiomorpholine 1,1-dioxide] | ≤ 1000 nM | < 100 nM | < 50 nM | ≤ 1000 nM | < 500 nM | < 500 nM
12 | Cc1nc(N[C@H](C)c2cccc(C(F)(F)[C@H](C)O)c2F)c2cc(C3(C#N)CC3)c(Cl)nc2n1 [Compound 258, 1-(7-chloro-4-(((R)-1-(3-((S)-1,1-difluoro-2-hydroxypropyl)-2-fluorophenyl)ethyl)amino)-2-methylpyrido[2,3-d]pyrimidin-6-yl)cyclopropane-1-carbonitrile] | ≤ 1000 nM | < 100 nM | < 50 nM | ≤ 1000 nM | < 500 nM | < 500 nM
13 | Cc1nc(N[C@H](C)c2cccc(C(F)F)c2F)c2cc(N3CCS(=O)(=O)CC3)c(Cl)nc2n1 [Compound 259, (R)-4-(7-chloro-4-((1-(3-(difluoromethyl)-2-fluorophenyl)ethyl)amino)-2-methylpyrido[2,3-d]pyrimidin-6-yl)thiomorpholine 1,1-dioxide] | ≤ 1000 nM | < 100 nM | < 50 nM | ≤ 1000 nM | < 500 nM | < 500 nM
14 | Cc1c([C@@H](C)Nc2ncnc3nc(Cl)c(C4CCS(=O)(=O)CC4)cc23)cccc1C(F)(F)F [Compound 260, (R)-4-(7-chloro-4-((1-(2-methyl-3-(trifluoromethyl)phenyl)ethyl)amino)pyrido[2,3-d]pyrimidin-6-yl)tetrahydro-2H-thiopyran 1,1-dioxide] | ≤ 1000 nM | < 100 nM | < 50 nM | ≤ 1000 nM | < 500 nM | < 500 nM
15 | C[C@@H](Nc1ncnc2nc(Cl)c(N3CCS(=O)(=O)CC3)cc12)c1cccc(C(F)F)c1F [Compound 261, (R)-4-(7-chloro-4-((1-(3-(difluoromethyl)-2-fluorophenyl)ethyl)amino)pyrido [2,3-d]pyrimidin-6-yl)thiomorpholine 1,1-dioxide] | ≤ 1000 nM | < 100 nM | < 50 nM | ≤ 1000 nM | < 500 nM | < 500 nM
